Columns and labels:
[1] = system: Pseudomonas Aeruginosa (ATCC27853); test: Microtiter plate growth of Pseudomonas Aeruginosa with amines and GROTAN; assay type: cell-based; settings: for growth of Pseudomonas Aeruginosa (Table 1 entry): pH 8.5, 24 hours; for enhancement in the biocidal effect of GROTAN: conclusion from Table 1
[2] = system: mixed enteric bacteria (klebsiella pneumoniae, Proteus vulgarus, Citrobacter sp., Escherichia coli); test: Maximum growth slope of mixed enteric bacteria culture with GROTAN plus alkanolamine; assay type: cell-based; settings: pH 9.0, TSB with emulsified oil, 24 hour
Description: A culture of mixed enteric bacteria (klebsiella pneumoniae, Proteus vulgarus, Citrobacter sp., Escherichia coli) at pH=9.0 in TSB (trypticase soy broth) media mixed with emulsified oil was prepared. A biocide, GROTAN® {78.5% 1,3,5-(2-hydroxyethyl)-s-triazine solution in water} as sold by Troy Chemicals (Florham Park, N.J.) was added at varying concentrations to the culture in combination with 2500 ppm of one of the four alkanolamines, N-butylaminoethanol (BAE), diethanolamine (DEA), diglycolamine (DGA) or 2-amino-2-methyl-1-propanol (AMP). Optical density measurements were taken every 15 minutes over a 24 hour time period (total of 96 data points). The maximum growth slope was calculated by taking the 10 contiguous data points that result in the highest growth slope (units of OD per time) over the 24 hour period. Those 10 data points were subjected to a least squares linear fit to calculate the maximum growth slope.

[3] = system: Pseudomonas aeruginosa (ATCC 10145); test: Maximum growth slope of Pseudomonas aeruginosa with Proxel DB20 (BIT) plus alkanolamine; assay type: cell-based; settings: pH 8.5, TSB, 24 hour
Description: A culture of Pseudomonas aeruginosa (ATCC 10145) at pH=8.5 in TSB (trypticase soy broth) media was prepared. The biocide Proxel DB20 (20% suspension of benzoisothiazolone (BIT) in water), as sold by Avecia, was added at varying concentrations in combination with 1000 ppm or 2000 ppm of the alkanolamines N-butylaminoethanol (BAE), 2-amino-2-methyl-1-propanol (AMP), dibutylaminoethanol (DBAE) or n-octylaminoethanol (OAE). Optical density measurements were taken every 15 minutes over a 24 hour time period (total of 96 data points). The maximum growth slope was calculated by taking the 10 contiguous data points that result in the highest growth slope (units of OD per time) over a 24 hour period. Those 10 data points were subjected to a least squares linear fit to calculate the maximum growth slope.

[4] = system: Mycobacterium smegmatis (ATCC # 19420); test: End-point optical density of Mycobacterium smegmatis with N-alkyl alkanolamines (590 nm, 72 h); assay type: cell-based; settings: 590 nm, after 72 hours, pH 8.5, tetrazolium dye
[5] = system: Mycobacterium marinum (ATCC # 19420); test: End-point optical density and MIC, Mycobacterium marinum (660 nm, 72 h); assay type: cell-based; settings: pH 8.5; for end-point optical density: 660 nm, after 72 hours
Description: The impact of N-alkylalkanolamines on the control of the bacterial species Mycobacterium smegmatis (ATCC # 19420), a bacteria common in water-oil systems, was evaluated by measuring optical absorbance of samples treated with various alkyl ethanolaminesis DCHA=Dicyclohexylamine, OAE=Octylaminoethanol, ODEA=Octyldiethanolamine. Bacterial concentration was monitored indirectly via optical absorbance at 660 nm. The values reported are end-point optical densities in milliOD units after 48 hours. The media consisted of a standardized solution of clear nutrient broth (Middlebrook 7H10 with OADC supplement), amine, buffer (Tris) and water. The pH was adjusted initially to 8.5 with Tris buffer. The first column in the Table gives the amine concentration in ppm. The final two columns give data for cells that also contained 2 grams per liter of boric acid. In all cases, the values are averages of at least three replicates. The final row of the Table gives an estimate of the concentration range in which the amine in question starts to inhibit the growth of this bacterial species.
The impact of the N-alkylalkanolamines of Example 6 on the control of the bacterial species Mycobacterium marinum (ATCC # 19420), bacteria common in water-oil systems, was evaluated as described above in Example 6. Bacterial concentration in the experimental media was monitored indirectly via optical absorbance at 660 nm. The values reported are end-point optical densities in milliOD units after 72 hours. The media consisted of a standardized solution of clear nutrient broth (Middlebrook 7H10 with OADC supplement), amine, buffer (Tris) and water. The pH was adjusted initially to 8.5 with Tris buffer. The first column in the Table gives the amine concentration in ppm. In all cases, the values are averages of at least three replicates. The final row of the Table gives an estimate of the concentration range in which the amine in question starts to inhibit the growth of this bacterial species.

[6] = system: Aureobasidium pullulans (ATCC 12536); test: End-point optical density of Aureobasidium pullulans with MIT/CMIT plus alkanolamine; assay type: cell-based; settings: SAB media pH 8.5
Description: The impact of N-alkylalkanolamines on the control of the bacterial species Aureobasidium pullulans (ATCC 12536), a bacteria common in water-oil systems, was evaluated by measuring optical absorbance of samples treated with various concentrations of N-alkyl alkanolamines. […] SAB media at pH 8.5 (Tris buffer) was employed. Table 8 summarizes measurement of end-point optical density after 24 hours and 48 hours: […]

[7] = system: Pseudomonas aeruginosa (ATCC 10145); test: Maximum growth slope of Pseudomonas aeruginosa with Bronopol plus alkanolamine; settings: pH 8.5, TSB
[8] = amine 2000 ppm plus GROTAN 100 ppm
[9] = amine 2000 ppm plus GROTAN 250 ppm
[10] = amine 2000 ppm plus GROTAN 500 ppm
[11] = amine 2000 ppm plus GROTAN 1000 ppm
[12] = amine 2000 ppm plus GROTAN 2000 ppm
[13] = amine 4000 ppm plus GROTAN 100 ppm
[14] = amine 4000 ppm plus GROTAN 250 ppm
[15] = amine 4000 ppm plus GROTAN 500 ppm
[16] = amine 4000 ppm plus GROTAN 1000 ppm
[17] = amine 4000 ppm plus GROTAN 2000 ppm
[18] = 2500 ppm amine plus GROTAN 650 ppm
[19] = 2500 ppm amine plus GROTAN 1650 ppm
[20] = amine 1000 ppm plus BIT 150 ppm
[21] = amine 1000 ppm plus BIT 250 ppm
[22] = amine 1000 ppm plus BIT 500 ppm
[23] = amine 2000 ppm plus BIT 150 ppm
[24] = amine 2000 ppm plus BIT 250 ppm
[25] = amine 2000 ppm plus BIT 500 ppm
[26] = amine 1000 ppm plus 50 ppm MIT/CMIT, 24 hours
[27] = amine 1000 ppm plus 50 ppm MIT/CMIT, 48 hours
[28] = amine 2000 ppm plus 50 ppm MIT/CMIT, 24 hours
[29] = amine 2000 ppm plus 50 ppm MIT/CMIT, 48 hours
[30] = amine 2000 ppm plus Bronopol 5 ppm
[31] = amine 2000 ppm plus Bronopol 15 ppm
[32] = amine 2000 ppm plus Bronopol 25 ppm
[33] = amine 2000 ppm plus Bronopol 35 ppm

CCCCNCCO [BAE, butylaminoethanol]
growth of Pseudomonas Aeruginosa (Table 1 entry) [1, 8]: 0.49
growth of Pseudomonas Aeruginosa (Table 1 entry) [1, 9]: 0.45
growth of Pseudomonas Aeruginosa (Table 1 entry) [1, 10]: 0.35
growth of Pseudomonas Aeruginosa (Table 1 entry) [1, 11]: 0.30
growth of Pseudomonas Aeruginosa (Table 1 entry) [1, 12]: 0.36
growth of Pseudomonas Aeruginosa (Table 1 entry) ([1]; amine 2000 ppm, GROTAN 0 ppm): 0.37
growth of Pseudomonas Aeruginosa (Table 1 entry) [1, 13]: 0.35
growth of Pseudomonas Aeruginosa (Table 1 entry) [1, 14]: 0.32
growth of Pseudomonas Aeruginosa (Table 1 entry) [1, 15]: 0.25
growth of Pseudomonas Aeruginosa (Table 1 entry) [1, 16]: 0.29
growth of Pseudomonas Aeruginosa (Table 1 entry) [1, 17]: 0.36
growth of Pseudomonas Aeruginosa (Table 1 entry) ([1]; amine 4000 ppm, GROTAN 0 ppm): 0.49
enhancement in the biocidal effect of GROTAN [1]: provide an enhancement in the biocidal effect of GROTAN®
maximum growth slope [2, 18]: 0.082 OD per time
maximum growth slope [2, 19]: 0.0515 OD per time
maximum growth slope ([2]; 2500 ppm amine, GROTAN 0 ppm): 0.2 OD per time
maximum growth slope [3, 20]: 0.317 OD per time
maximum growth slope [3, 21]: 0.353 OD per time
maximum growth slope [3, 22]: 0.281 OD per time
maximum growth slope ([3]; amine 1000 ppm, BIT 0 ppm): 0.333 OD per time
maximum growth slope [3, 23]: 0.134 OD per time
maximum growth slope [3, 24]: 0.000 OD per time
maximum growth slope [3, 25]: 0.000 OD per time
maximum growth slope ([3]; amine 2000 ppm, BIT 0 ppm): 0.000 OD per time
end-point optical density ([4]; amine 470 ppm): 2200 milliOD
end-point optical density ([4]; amine 940 ppm): 2100 milliOD
end-point optical density ([4]; amine 1880 ppm): 2000 milliOD
end-point optical density ([4]; amine 3750 ppm): 1900 milliOD
end-point optical density ([4]; amine 7500 ppm): 1700 milliOD
MIC (estimate of the concentration range in which the amine starts to inhibit growth) ([5]; 72 hours): >4000 ppm
end-point optical density ([5]; amine 800 ppm): 0.7 milliOD
end-point optical density ([5]; amine 1200 ppm): 0.7 milliOD
end-point optical density ([5]; amine 2000 ppm): 0.6 milliOD
end-point optical density ([5]; amine 4000 ppm): 0.6 milliOD
end-point optical density [6, 26]: 0.3
end-point optical density [6, 27]: 0.3
end-point optical density [6, 28]: 0.2
end-point optical density [6, 29]: 0.2
maximum growth slope [7, 30]: 0.083
maximum growth slope [7, 31]: 0
maximum growth slope [7, 32]: 0
maximum growth slope [7, 33]: 0

CC(C)(N)CO [AMP, 2-methyl-2-amino-1-propanol, reference compound]
growth of Pseudomonas Aeruginosa (Table 1 entry) [1, 8]: 0.72
growth of Pseudomonas Aeruginosa (Table 1 entry) [1, 9]: 0.72
growth of Pseudomonas Aeruginosa (Table 1 entry) [1, 10]: 0.72
growth of Pseudomonas Aeruginosa (Table 1 entry) [1, 11]: 0.31
growth of Pseudomonas Aeruginosa (Table 1 entry) [1, 12]: 0.35
growth of Pseudomonas Aeruginosa (Table 1 entry) ([1]; amine 2000 ppm, GROTAN 0 ppm): 0.72
growth of Pseudomonas Aeruginosa (Table 1 entry) [1, 13]: 0.72
growth of Pseudomonas Aeruginosa (Table 1 entry) [1, 14]: 0.69
growth of Pseudomonas Aeruginosa (Table 1 entry) [1, 15]: 0.39
growth of Pseudomonas Aeruginosa (Table 1 entry) [1, 16]: 0.30
growth of Pseudomonas Aeruginosa (Table 1 entry) [1, 17]: 0.37
growth of Pseudomonas Aeruginosa (Table 1 entry) ([1]; amine 4000 ppm, GROTAN 0 ppm): 1.12
enhancement in the biocidal effect of GROTAN [1]: not seen
maximum growth slope [2, 18]: 0.32 OD per time
maximum growth slope [2, 19]: 0.069 OD per time
maximum growth slope ([2]; 2500 ppm amine, GROTAN 0 ppm): 1.065 OD per time
maximum growth slope [3, 20]: 0.667 OD per time
maximum growth slope [3, 21]: 0.508 OD per time
maximum growth slope [3, 22]: 0.407 OD per time
maximum growth slope ([3]; amine 1000 ppm, BIT 0 ppm): 0.478 OD per time
maximum growth slope [3, 23]: 0.361 OD per time
maximum growth slope [3, 24]: 0.320 OD per time
maximum growth slope [3, 25]: 0.228 OD per time
maximum growth slope ([3]; amine 2000 ppm, BIT 0 ppm): 0.29 OD per time
end-point optical density ([4]; amine 470 ppm): 2100 milliOD
end-point optical density ([4]; amine 940 ppm): 2200 milliOD
end-point optical density ([4]; amine 1880 ppm): 2100 milliOD
end-point optical density ([4]; amine 3750 ppm): 2000 milliOD
end-point optical density ([4]; amine 7500 ppm): 1700 milliOD
end-point optical density [6, 26]: 0.3
end-point optical density [6, 27]: 0.4
end-point optical density [6, 28]: 0.3
end-point optical density [6, 29]: 0.4
maximum growth slope [7, 30]: 0.345
maximum growth slope [7, 31]: 0.327
maximum growth slope [7, 32]: 0
maximum growth slope [7, 33]: 0

Source: US20060005464A1, “Alkyl ethanolamine and biocide combination for hydrocarbon based fuels” (priority 2004, published 2006)
